Results on one molecule are retold here after patent US20220143194A1, “SELENIUM ANTIBODY CONJUGATES” (priority 2020, published 2022).

Non-standard residues stand in square brackets, D forms with d. Residues, ends and D or L forms follow the SMILES beside them. *: point of attachment. Dolaproine = CO[C@@H]([C@@H]1CCCN1)[C@@H](C)C(=O)O; Dil = CC[C@H](C)[C@H](NC)[C@@H](CC(=O)O)OC; X1 = C[C@@H](N*)[C@@H](O)c1ccccc1; NMeV = CN[C@H](C(=O)O)C(C)C

One assay has as its system NCI H1975 (Her2−) cells. Description: In vitro cytotoxicity assay (CCK8 cell viability), NCI H1975 (Her2−) negative control cells. The assay is classed as cell-based. Conditions: 3 days incubation. As to the method: (§1) The ability of various antibody-drug conjugates and naked payloads to kill antigen-expressing tumor cells in vitro was assessed.
(§2) SKBR3 (Her2+) cells were seeded in 96 well plates at 8000 cells per well in complete growth media and grown overnight. For cell viability curves, serially diluted conjugates or naked payloads were added to the cells at final concentrations ranging from 100 nM to 5 pM and incubated for 3 days. NCI H1975 (Her2−) cells were run as negative controls using similar conditions. To measure viability, cells were incubated with CCK8 (Dojindo) for the final 2 hours and the absorbance at 450 nm (OD450) was determined on a Victor (Perkin Elmer). Background OD450 levels determined from digitonin (40 nM) treated cells were subtracted from all wells and viability is expressed as a percentage of the untreated controls. IC50 values were determined from a four-parameter logistic equation over a 10-point response curve (GraphPad Prism). […] The interchain disulfide conjugates had similar IC50 values as the transglutaminase site-specific selenocystamine conjugates. […] For comparison, the mc-vc-PAB-MMAE interchain disulfide conjugated molecules were produced according to Doronina, S. O. et al., Nat. Biotechnol., 2003, 21, 778.

The test system of a further assay is SKBR3 (Her2+) cells. Description: In vitro cytotoxicity assay (CCK8 cell viability), SKBR3 (Her2+) cells. Type of assay: cell-based. As to the method:
as §1, §2

In general, IC50 refers to the midpoint of a concentration-inhibition curve.

As to `CC[C@H](C)[C@@H]([C@@H](CC(=O)N1CCC[C@H]1[C@H](OC)[C@@H](C)C(=O)N[C@H](C)[C@@H](O)c1ccccc1)OC)N(C)C(=O)[C@@H](NC(=O)[C@@H](NC)C(C)C)C(C)C` [MMAE, monomethyl auristatin E] (H-[NMeV]V[Dil][Dolaproine]-X1), the “% Kill” value in the assay with NCI H1975 (Her2−) cells (concentrations 100 nM to 5 pM) turned out to be 100%; in the assay with SKBR3 (Her2+) cells (SK-BR-3 cells, 3 days incubation, CCK8 viability, concentrations 100 nM to 5 pM), 93.6%. Besides, the IC50 with NCI H1975 (Her2−) cells (Homo sapiens, 72 h, IC50 corrected for payload equivalents) came to 0.405 nM; in the assay on SKBR3 (Her2+) cells (Homo sapiens, SK-BR-3, 72 h), 0.191 nM.
